Experimental data reported in patent publication US11780821B2, “Inhibitors of fibroblast activation protein” (Praxis Biotech LLC, priority 2017, dated 2023).
Read-outs that look alike come from different tables or passages of the source.

Tests used:
Format in all cases: biochemical
[1] = molecular target: T1, recombinant human FAPα (rhFAPα) (Homo sapiens, UniProt Q12884); test: FAPα enzymatic exopeptidase (dipeptidase) activity assay; details: for IC50: exopeptidase, read-out: rhFAPα (exo IC50)
T1 construct: purchased R&S system (so in the source)
T1 sequence (Q12884 1-760): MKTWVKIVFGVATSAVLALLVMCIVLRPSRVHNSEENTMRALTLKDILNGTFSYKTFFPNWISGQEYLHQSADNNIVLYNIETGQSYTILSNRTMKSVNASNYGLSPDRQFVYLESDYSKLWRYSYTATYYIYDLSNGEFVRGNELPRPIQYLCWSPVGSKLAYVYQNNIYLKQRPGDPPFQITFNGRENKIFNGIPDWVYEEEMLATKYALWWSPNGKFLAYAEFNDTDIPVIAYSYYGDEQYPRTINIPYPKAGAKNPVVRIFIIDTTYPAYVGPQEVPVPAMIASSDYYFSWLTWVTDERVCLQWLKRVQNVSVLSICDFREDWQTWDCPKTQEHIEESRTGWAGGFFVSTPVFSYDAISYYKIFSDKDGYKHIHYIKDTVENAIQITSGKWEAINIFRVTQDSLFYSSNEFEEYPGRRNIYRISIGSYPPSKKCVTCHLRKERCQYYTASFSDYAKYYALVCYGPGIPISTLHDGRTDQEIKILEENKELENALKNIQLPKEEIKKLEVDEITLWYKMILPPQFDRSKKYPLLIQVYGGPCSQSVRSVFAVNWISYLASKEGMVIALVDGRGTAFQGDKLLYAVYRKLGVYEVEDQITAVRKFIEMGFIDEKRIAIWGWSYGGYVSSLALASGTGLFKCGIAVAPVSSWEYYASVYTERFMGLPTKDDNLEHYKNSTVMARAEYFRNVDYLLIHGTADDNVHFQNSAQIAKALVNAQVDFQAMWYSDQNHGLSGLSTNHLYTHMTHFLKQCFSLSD

[2] = molecular target: T2, recombinant human DPPIV (rhDPPIV) (Homo sapiens, UniProt P27487); test: DPPIV enzymatic activity assay; details: H-Gly-Pro-pNA substrate
T2 construct: purchased R&S system (so in the source)
T2 sequence (P27487 whole entry): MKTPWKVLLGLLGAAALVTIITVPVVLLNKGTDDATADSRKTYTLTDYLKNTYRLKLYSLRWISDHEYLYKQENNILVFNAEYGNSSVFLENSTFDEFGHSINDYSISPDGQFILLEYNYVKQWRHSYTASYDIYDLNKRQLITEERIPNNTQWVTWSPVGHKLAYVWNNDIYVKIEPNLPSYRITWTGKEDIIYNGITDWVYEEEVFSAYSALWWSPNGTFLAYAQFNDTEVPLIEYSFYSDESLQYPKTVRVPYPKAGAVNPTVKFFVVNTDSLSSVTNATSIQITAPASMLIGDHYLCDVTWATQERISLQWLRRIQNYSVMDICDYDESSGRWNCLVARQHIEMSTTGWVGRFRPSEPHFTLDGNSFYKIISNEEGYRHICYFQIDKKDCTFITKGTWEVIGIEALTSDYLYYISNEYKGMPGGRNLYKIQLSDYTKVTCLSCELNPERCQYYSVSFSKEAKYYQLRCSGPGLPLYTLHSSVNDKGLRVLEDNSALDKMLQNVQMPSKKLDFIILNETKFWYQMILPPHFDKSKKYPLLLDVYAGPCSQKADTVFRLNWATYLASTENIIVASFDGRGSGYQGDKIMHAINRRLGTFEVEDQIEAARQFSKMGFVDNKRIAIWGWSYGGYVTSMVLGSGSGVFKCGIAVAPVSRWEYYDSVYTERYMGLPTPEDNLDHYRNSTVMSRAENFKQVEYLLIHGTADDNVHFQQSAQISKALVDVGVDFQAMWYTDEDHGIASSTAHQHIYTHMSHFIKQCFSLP

[3] = molecular target: T3, mouse plasma DPPIV (Mus musculus, UniProt P28843); test: DPPIV enzymatic activity in mouse plasma; details: C57BL/6 mouse plasma; H-Gly-Pro-AMC substrate
T3 construct: from tissue; host or cells: mouse plasma (C57BL/6, EDTA)
T3 sequence (P28843 37-760 limits assumed): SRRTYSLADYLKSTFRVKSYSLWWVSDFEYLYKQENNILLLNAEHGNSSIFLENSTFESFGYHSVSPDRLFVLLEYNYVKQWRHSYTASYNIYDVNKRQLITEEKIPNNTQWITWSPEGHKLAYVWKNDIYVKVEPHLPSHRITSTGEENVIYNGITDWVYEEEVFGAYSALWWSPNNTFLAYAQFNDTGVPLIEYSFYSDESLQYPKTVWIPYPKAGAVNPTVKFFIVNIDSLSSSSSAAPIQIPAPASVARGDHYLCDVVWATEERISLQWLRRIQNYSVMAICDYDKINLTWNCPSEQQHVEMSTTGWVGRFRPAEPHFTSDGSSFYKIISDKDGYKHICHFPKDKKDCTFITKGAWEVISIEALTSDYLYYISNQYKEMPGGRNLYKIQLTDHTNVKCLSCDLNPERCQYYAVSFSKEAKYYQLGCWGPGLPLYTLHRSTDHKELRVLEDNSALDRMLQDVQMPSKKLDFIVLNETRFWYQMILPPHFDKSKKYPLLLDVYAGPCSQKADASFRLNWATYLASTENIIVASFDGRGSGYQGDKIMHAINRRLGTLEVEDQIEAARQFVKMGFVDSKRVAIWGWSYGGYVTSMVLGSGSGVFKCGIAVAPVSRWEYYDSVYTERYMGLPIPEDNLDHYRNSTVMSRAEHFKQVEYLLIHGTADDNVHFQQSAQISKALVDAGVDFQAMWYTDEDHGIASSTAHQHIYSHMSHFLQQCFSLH
Outline: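 C57BL/6 mouse EDTA plasma, diluted in pH 7.5 Tris/NaCl/salicylic acid/EDTA buffer, preincubated 15 min at 37° C with compound or DMSO. H-Gly-Pro-AMC substrate added (200 μM solution, before mixing), reaction 1 h at 37° C; AMC fluorescence read at Ex 360/Em 460 nm, at least duplicate.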

[4] = molecular target: T4, circulating FAPα from human plasma (Homo sapiens, UniProt Q12884); test: Ex vivo inhibition of circulating FAPα activity from human plasma; details: human plasma; PRXS-AMC substrate; read-out: FAPα activity in human plasma (PRXS-AMC) IC50
T4 construct: from tissue; host or cells: human plasma (EDTA-K2)
T4 sequence (Q12884 24-760 limits assumed): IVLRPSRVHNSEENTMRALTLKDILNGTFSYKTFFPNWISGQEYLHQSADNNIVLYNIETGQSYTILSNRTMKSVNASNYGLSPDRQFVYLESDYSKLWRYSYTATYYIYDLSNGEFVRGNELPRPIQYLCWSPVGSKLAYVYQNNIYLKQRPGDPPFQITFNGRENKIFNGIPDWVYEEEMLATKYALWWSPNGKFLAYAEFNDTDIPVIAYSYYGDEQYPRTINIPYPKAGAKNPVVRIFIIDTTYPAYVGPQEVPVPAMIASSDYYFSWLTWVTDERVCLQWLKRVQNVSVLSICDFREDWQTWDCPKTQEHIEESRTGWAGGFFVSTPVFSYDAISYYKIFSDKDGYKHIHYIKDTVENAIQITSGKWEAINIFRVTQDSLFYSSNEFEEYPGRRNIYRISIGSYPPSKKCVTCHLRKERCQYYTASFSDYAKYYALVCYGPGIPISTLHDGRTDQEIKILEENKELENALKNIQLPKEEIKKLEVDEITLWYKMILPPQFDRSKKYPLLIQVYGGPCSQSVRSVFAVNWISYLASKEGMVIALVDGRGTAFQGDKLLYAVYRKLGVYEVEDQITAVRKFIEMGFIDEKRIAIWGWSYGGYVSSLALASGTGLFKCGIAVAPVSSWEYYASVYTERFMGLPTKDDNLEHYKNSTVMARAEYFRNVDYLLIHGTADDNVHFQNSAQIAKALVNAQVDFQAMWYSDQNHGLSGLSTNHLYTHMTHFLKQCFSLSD
Protocol: Human blood was obtained from healthy young volunteers. Blood samples were collected in tubes coated with EDTA-K2 by venipuncture method, mixed gently, then kept on ice and centrifuged at 2,500×g for 15 minutes at 4° C. After plasma separation, samples were stored at −80° C. in aliquots of 300 μL. […] Exemplary compounds were allowed to interact with the enzyme for 15 minutes at 37° C. After pre-incubation, 50 μl of 200 μM PRXS-AMC substrate were added to the all mixtures. All reactions were carried out for 1 h at 37° C. protected from light. AMC release was detected measuring fluorescence at an excitation/emission wavelength of 380/460 nm using a Multifunction Microplate Reader. All measurements were carried out as single point.

inhibition at 1 µM ([1]; 1 μM test compound, Z-Gly-Pro-AMC substrate, read-out: rhFAPα (% exo inh @ 1 μM)): > 50% | IC50 ([1]; Table 2, Z-Gly-Pro-AMC): < 1000 nM | IC50 ([1]; Table 3): < 1000 nM | IC50 [2]: > 10000 nM | IC50 [3]: > 10000 nM | IC50 [4]: < 1000 nM
Structure (SMILES): N#C[C@@H]1CC(F)(F)CN1C(=O)CNC(=O)c1ccncc1-c1cc(Cl)ccc1F [Compound 54, (S)-3-(5-chloro-2-fluorophenyl)-N-(2-(2-cyano-4,4-difluoropyrrolidin-1-yl)-2-oxoethyl)isonicotinamide]
